Source: US10981932B2, “Macrocyclic indole derivatives” (Bayer Aktiengesellschaft, priority 2016, dated 2021)

How the values were obtained:
MCL-1 = MCL-1 (Homo sapiens, UniProt Q07820); test: Protein-protein interaction assay MCL-1/Noxa BH3 peptide (MCL-1 assay), TR-FRET; format: binding; details: MBP-MCL-1 / Noxa BH3-derived peptide, median
In short: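 Displacement of the biotinylated Noxa BH3 peptide from MBP-tagged human MCL-1 (1 nM) is detected by time-resolved FRET. Compounds are tested in duplicate across eleven concentrations up to 20 μM, incubated 1 h at 22 °C and overnight at 4 °C, and IC50 is fitted with a four-parameter equation.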

SUDHL5 [1] = test: Induction of caspase-3/7 activity (Caspase-Glo 3/7), SUDHL5; format: cell-based; details: Homo sapiens, SU-DHL-5, 3 h, caspase-3/7 induction, SUDHL5 cells, 3 h treatment; median
In short: (§1)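 Caspase-Glo 3/7 luminescence, 3 h compound exposure, 37 °C, humidified. Minus medium-only blank. EC50 fit: C0=1, plateau = reference max induction.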

SUDHL10 [2] = test: Induction of caspase-3/7 activity (Caspase-Glo 3/7), SUDHL10; format: cell-based; details: Homo sapiens, SU-DHL10, 3 h, caspase-3/7 induction, SUDHL10 cells, 3 h treatment; median
In short: as §1

SUDHL5 [3] = test: Anti-proliferative effect (CellTiter-Glo, 72 h), SUDHL5; format: cell-based; details: Homo sapiens, SU-DHL-5, 72 h, SUDHL5 cells, antiproliferation, 72 h incubation, median, read-out: Antiproli SUDHL5 [M] (median)
In short: (§2)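 Viable cells quantified with CellTiter-Glo after 72 h at 37 °C; rim wells excluded; day 0 plate as baseline.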

SUDHL10 [4] = test: Anti-proliferative effect (CellTiter-Glo, 72 h), SUDHL10; format: cell-based; details: Homo sapiens, SU-DHL10, 72 h, SUDHL10 cells, antiproliferation, 72 h incubation, median, read-out: Antiproli SUDHL10 [M] (median)
In short: as §2

OPM2 = test: Anti-proliferative effect (CellTiter-Glo, 72 h), OPM2; format: cell-based; details: Homo sapiens, OPM-2, 72 h, OPM2 cells, median, read-out: IC50 antiproliferation assay OPM2 [M] (median)
In short: as §2

A2780 = test: Anti-proliferative effect (CellTiter-Glo, 72 h), A2780; format: cell-based; details: Homo sapiens, A2780, 72 h, A2780 cells, median, read-out: IC50 antiproliferation assay A2780 [M] (median)
In short: as §2

SUDHL5 [5] = test: Induction of cytotoxicity (CellTiter-Glo, 5 h), SUDHL5; details: Homo sapiens, SU-DHL-5, 5 h, read-out: Cytotox SUDHL5 [M] (median), SUDHL5 cells, cytotoxicity induction, CellTiter-Glo, 5 h incubation, median
SUDHL10 [6] = test: Induction of cytotoxicity (CellTiter-Glo, 5 h), SUDHL10; details: Homo sapiens, SU-DHL10, 5 h, read-out: Cytotox SUDHL10 [M] (median), SUDHL10 cells, cytotoxicity induction, CellTiter-Glo, 5 h incubation, median
Method: Therefore, cytotoxicity assays were run in parallel in SUDHL5 and SUDHL10 cells.
The different cell lines were plated in culture medium (RPMI 1640 [GIBCO #22400-089]supplemented with 10% Fetal Bovine Serum) at a density of 3.300 cells in 30 μl/well in a sterile, solid black, flat bottom, polystyrene, TC-treated 384-well microplate (Corning #3571) using Multidrop Combi Reagent Dispenser. As a control, medium without cells was also added to the plate. Cells were incubated in a humidified incubator at 37° C. overnight. On the next day, the cells were treated with compounds (stock solution, 10 mM in DMSO) using the HP D300 Digital Dispenser in a concentration range of 3.3×10e-5 M (33 μM) to 5×10e-9 M (5 nM) in a single-dot curve with at least 16 dilutions and a DMSO concentration of 0.33%. Rim wells were excluded. The cells were incubated for 5 h hours in a humidified incubator at 37° C. After this incubation, 30 μl of CellTiter-Glo@ Luminescent Cell Viability reagent (Promega, G7573) was added to each well using the Multidrop Combi Reagent Dispenser, followed by 15 min incubation on a shaker at room temperature. Finally, luminescence was read at 0.1 ms, with a gain of 3000 using the PHERAstar FS microplate reader (BMG Labtech).
The Bella DRC Master Sheet was used to calculate IC50s, with fixed CI=0 and C0=1.

Chain of MCL-1 (Q07820 whole entry): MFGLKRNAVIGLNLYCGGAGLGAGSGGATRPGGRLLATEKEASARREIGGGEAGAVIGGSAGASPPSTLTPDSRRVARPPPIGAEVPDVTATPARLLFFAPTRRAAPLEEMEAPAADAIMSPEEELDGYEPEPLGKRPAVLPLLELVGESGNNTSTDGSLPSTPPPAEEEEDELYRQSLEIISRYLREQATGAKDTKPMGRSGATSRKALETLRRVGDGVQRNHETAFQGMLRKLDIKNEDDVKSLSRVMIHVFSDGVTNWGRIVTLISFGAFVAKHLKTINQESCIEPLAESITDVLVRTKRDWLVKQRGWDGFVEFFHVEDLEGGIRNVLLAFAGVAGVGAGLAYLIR

Row | Compound | IC50 (MCL-1) | EC50 (SUDHL5 [1]) | EC50 (SUDHL10 [2]) | IC50 (SUDHL5 [3]) | IC50 (SUDHL10 [4]) | IC50 (OPM2) | IC50 (A2780) | IC50 (SUDHL5 [5]) | IC50 (SUDHL10 [6])
1 | COCCn1nc2c(c1C)-c1cccc3c(CCCOc4cccc5ccccc45)c(C(=O)O)n(c13)CCCN(C)C2 (racemic) [Example 052, (rac)-10-(2-methoxyethyl)-7,11-dimethyl-1-[3-(naphthalen-1-yloxy)propyl]-4,5,6,7,8,10-hexahydropyrazolo[3′,4′:7,8][1,5]diazecino[9,10,1-hi]indole-2-carboxylic Acid] | 28 nM | 29.9 µM | > 33 µM | 2.15e-06 M | 1.3e-05 M | 3.07e-05 M | 7.41e-06 M | 2.68e-05 M | 2.97e-05 M
2 | Cc1c2c(nn1CCN1CCOCC1)COCCCCn1c(C(=O)O)c(CCCOc3cccc4ccccc34)c3cccc-2c31 (racemic) [Example 053, (rac)-3-methyl-2-[2-(morpholin-4-yl)ethyl]-7-[3-(naphthalen-1-yloxy)propyl]-2,10,11,12,13,15-hexahydropyrazolo[4′,3′:9,10][1,6]oxazacycloundecino[8,7,6-hi]indole-8-carboxylic Acid] | 3.41 nM | 2.51 µM | 5.67 µM | 1.47e-06 M | 7.88e-06 M | 1.11e-05 M | > 3.3e-05 M | 3e-06 M | 7.75e-06 M
3 | Cc1c2c(nn1CCN1CCOCC1)CN(C)CCCn1c(C(=O)O)c(CCCOc3cccc4ccccc34)c3cccc-2c31 (racemic) [Example 059, (rac)-7,11-dimethyl-10-[2-(morpholin-4-yl)ethyl]-1-[3-(naphthalen-1-yloxy)propyl]-4,5,67,8,10-hexahydropyrazolo[3′,4′:7,8][1,5]diazecino[9,10,1-hi]indole-2-carboxylic Acid] | 23.9 nM | 15.9 µM | 27.7 µM | 6.96e-06 M | 1.99e-05 M | 2.52e-05 M | 2.91e-05 M | 2.54e-05 M | 1.9e-05 M
4 | Cc1c2c(nn1C)COC/C=C\Cn1c(C(=O)O)c(CCCOc3cccc4ccccc34)c3cccc-2c31 (racemic) [Example 062, (rac)-(11Z)-2,3-dimethyl-7-[3-(naphthalen-1-yloxy)propyl]-2,10,13,15-tetrahydropyrazolo[4′,3′:9,10][1,6]oxazacycloundecino[8,7,6-hi]indole-8-carboxylic Acid] | 13.1 nM | 5.9 µM | 18.1 µM | 4.17e-06 M | 4.49e-06 M | 1.67e-05 M | 2.26e-05 M | 6.67e-06 M | 2.43e-05 M
5 | Cc1c2c(nn1C)COCCCn1c(C(=O)O)c(CCCOc3cccc4ccccc34)c3cccc-2c31 (racemic) [Example 063, (rac)-10,11-dimethyl-1-[3-(naphthalen-1-yloxy)propyl]-5,6,8,10-tetrahydro-4H-pyrazolo[4′,3′:8,9][1,5]oxazecino[7,6,5-hi]indole-2-carboxylic Acid] | 10.6 nM | 7.71 µM | 16.5 µM | 3.98e-06 M | 5.35e-06 M | 1.36e-05 M | 2.02e-05 M | 7.73e-06 M | 1.16e-05 M
6 | Cc1ccc2c(CCCOc3cccc4ccccc34)c(C(=O)O)n3c2c1-c1c(nn(C)c1C)COC/C=C\C3 (racemic) [Example 070, (rac)-(11Z)-2,3,4-trimethyl-7-[3-(naphthalen-1-yloxy)propyl]-2,10,13,15-tetrahydropyrazolo[4′,3′:9,10][1,6]oxazacycloundecino[8,7,6-hi]indole-8-carboxylic Acid] | 6.52 nM | 5.4 µM | 8.62 µM | 2e-06 M | 8.58e-06 M | 1.34e-05 M | 1.87e-05 M | 4.28e-06 M | 9.59e-06 M
7 | COCCn1nc2c(c1C)-c1cccc3c(CCCOc4cccc5ccccc45)c(C(=O)O)n(c13)C/C=C\COC2 (racemic) [Example 071, (rac)-(11Z)-2-(2-methoxyethyl)-3-methyl-7-[3-(naphthalen-1-yloxy)propyl]-2,10,13,15-tetrahydropyrazolo[4′,3′:9,10][1,6]oxazacycloundecino[8,7,6-hi]indole-8-carboxylic Acid] | 4.12 nM | 5.04 µM | 11.1 µM | 6.23e-06 M | 2.59e-06 M | 1.3e-05 M | 1.89e-05 M | 7.45e-06 M | 1.76e-05 M
8 | Cc1ccc2c(CCCOc3cccc4ccccc34)c(C(=O)O)n3c2c1-c1c(nn(C)c1C)CN(C)CCC3 (racemic) [Example 072, (rac)-7,10,11,12-tetramethyl-1-[3-(naphthalen-1-yloxy)propyl]-4,5,6,7,8,10-hexahydropyrazolo[3′,4′:7,8][1,5]diazecino[9,10,1-hi]indole-2-carboxylic Acid] | 3.4 nM | 4.54 µM | 4.91 µM | 1.11e-06 M | 5.65e-06 M | 8.23e-06 M | 9.51e-06 M | 3.43e-06 M | 6.12e-06 M
9 | Cc1ccc2c(CCCOc3cccc4ccccc34)c(C(=O)O)n3c2c1-c1c(nn(C)c1C)COCCCC3 (racemic) [Example 075, (rac)-2,3,4-trimethyl-7-[3-(naphthalen-1-yloxy)propyl]-2,10,11,12,13,15-hexahydropyrazolo[4′,3′:9,10][1,6]oxazacycloundecino[8,7,6-hi]indole-8-carboxylic Acid] | 1.71 nM | 3.25 µM | 6.36 µM | 3.21e-06 M | 2.63e-06 M | 1.1e-05 M | 1.97e-05 M | 3.66e-06 M | 8.23e-06 M
10 | CCn1nc2c(c1C1CC1)-c1cccc3c(CCCOc4cccc5ccccc45)c(C(=O)O)n(c13)CCCCOC2 (racemic) [Example 081, (rac)-3-Cyclopropyl-2-ethyl-7-[3-(naphthalen-1-yloxy)propyl]-2,10,11,12,13,15-hexahydropyrazolo[4′3′:9,10][1,6]oxazacycloundecino[8,7,6-hi]indole-8-carboxylic Acid] | 15 nM | 7.21 µM | 19 µM | 9.61e-06 M | 9.62e-06 M | 1.44e-05 M | 1.74e-05 M | 7.06e-06 M | 2.26e-05 M
11 | COCCn1nc2c(c1C1CC1)-c1cccc3c(CCCOc4cccc5ccccc45)c(C(=O)O)n(c13)CCCCOC2 (racemic) [Example 084, (rac)-3-Cycopropyl-2-(2-methoxyethyl)-7-[3-(naphthalen-1-yloxy)propyl]-2,10,11,12,13,15-hexahydropyrazolo[4′,3′:9,10][1,6]oxazacycloundecino[8,7,6-hi]indole-8-carboxylic Acid] | 3.09 nM | 7.55 µM | 14.9 µM | 7.19e-06 M | 3.87e-06 M | 2.67e-05 M | 1.77e-05 M | 6.6e-06 M | 2.06e-05 M
12 | CN1CCCn2c(C(=O)O)c(CCCOc3cccc4ccccc34)c3cccc(c32)-c2c(CCN3CCOCC3)nn(C)c2C1 (racemic) [Example 124, (rac)-7,9-dimethyl-11-[2-(morpholin-4-yl)ethyl]-1-[3-(naphthalen-1-yloxy)propyl]-4,5,6,7,8,9-hexahydropyrazolo[3′,4′:7,8][1,5]diazecino[9,10,1-hi]indole-2-carboxylic Acid] | 18.7 nM | 11.2 µM | 13.4 µM | 6.64e-06 M | 3.05e-06 M | 1.48e-05 M | 1.1e-05 M | 1.71e-05 M | 1.61e-05 M
13 | Cn1nc(CN2CCOCC2)c2c1COCC=CCn1c(C(=O)O)c(CCCOc3cccc4ccccc34)c3cccc-2c31 (racemic) [Example 132, (rac)-(E/Z)-1-methyl-3-(morpholin-4-ylmethyl)-7-[3-(naphthalen-1-yloxy)propyl]-1,10,13,15-tetrahydropyrazolo[4′,3′:9,10][1,6]oxazacycloundecino[8,7,6-hi]indole-8-carboxylic Acid] | 33.5 nM | 25.4 µM | > 33 µM | 1.78e-05 M | 6e-06 M | 1.17e-05 M | 1.34e-05 M | 2.81e-05 M | 1.69e-05 M
